Read-outs that look alike come from different tables or passages of the source.
Columns and labels:
RPL7A = RPL7A (Homo sapiens, UniProt P62424); test: binding to AX14596 beads (HeLa lysate, SILAC MS); set-up: endogenous in cells; host or cells: HeLa S3
Protocol: (§1) Differentially SILAC-encoded cell lysates were either incubated with the inhibitor beads displaying immobilized AX14596 or control resin devoid of ligand. In parallel, the supernatant from the first binding step was subjected to a second incubation with the AX14596 resin (FIG. 4). The resulting three elution fractions were combined, resolved by gel electrophoresis, proteolytically digested and the relative abundance of the retained proteins quantified. Proteins showing considerable binding to the control resin were identified as non-specific interactors and therefore not considered further. […] These target-specific ratios were similar in “label switch” experiments (FIGS. 6a and 6c). The binding equilibrium was determined in parallel control SILAC experiments as well as the excess of the immobilized compound over its cellular targets, the excess preferably being a molar excess (FIG. 7 and FIG. 8).
(§2) Cysteine carbamidomethylation was set as a fixed modification and N-acetyl protein and oxidized methionine were allowed as variable modifications. Spectra that were determined to result from heavy labeled peptides in the pre-search detection of SILAC partners by MaxQuant were searched with the fixed modifications Lys^4, Lys^8, Arg^6 and Arg^10, whereas MS/MS spectra for which no SILAC state could be assigned before database searching were searched with Lys^4, Lys^8, Arg^6 and Arg^10 as variable modifications. The mass tolerance was set to 5 ppm for monoisotopic precursor ions and to 0.5 Da for MS/MS peaks. The minimum peptide length was set to 6 amino acids and up to three missed cleavages and three isotopically labeled amino acids were permitted per peptide. The accepted false discovery rate (FDR) was 1% for the proteins and peptides. The cut-off for the posterior error probability (PEP) of peptides was set to 10%. Peptide PEPs were determined by generating Mascot score and peptide-length-dependent histograms for both the forward and the reverse hits and then deriving the probability of a false identification for a given top-scoring peptide using Bayes' theorem. The PEPs of peptides belonging to the same proteins were then multiplied. Each peptide sequence was considered only once with the lowest PEP determined in case of multiple sequencing of the same isotopic pattern or of peptide species with different SILAC, charge or modification states. Proteins were then sorted according to their products of their peptide PEPs and included until a FDR of 1% was reached according to the fraction of reverse proteins contained in the protein list. In addition to the FDR threshold applied for protein identification, proteins were only included when they were identified with at least two peptides (of which one was required to be unique for the protein) and quantified if at least on quantifiable SILAC pair was associated with them. Outliers were not removed as protein ratios were calculated as the median instead of the average of all peptide ratios. For peptides shared among different identified proteins, SILAC ratios were only considered for the ratio of the protein identified with the highest number of unique peptides. Protein ratios for the different in vitro association experiments were corrected for the initial SILAC pooling ratio, which was determined from the median of protein ratios in pooled SILAC-encoded cell extracts.

NUDT12 = NUDT12 (Homo sapiens, UniProt Q9BQG2); test: binding to AX14596 beads (HeLa lysate, SILAC MS); set-up: endogenous in cells; host or cells: HeLa S3
NUDT12, sequence (Q9BQG2 whole entry): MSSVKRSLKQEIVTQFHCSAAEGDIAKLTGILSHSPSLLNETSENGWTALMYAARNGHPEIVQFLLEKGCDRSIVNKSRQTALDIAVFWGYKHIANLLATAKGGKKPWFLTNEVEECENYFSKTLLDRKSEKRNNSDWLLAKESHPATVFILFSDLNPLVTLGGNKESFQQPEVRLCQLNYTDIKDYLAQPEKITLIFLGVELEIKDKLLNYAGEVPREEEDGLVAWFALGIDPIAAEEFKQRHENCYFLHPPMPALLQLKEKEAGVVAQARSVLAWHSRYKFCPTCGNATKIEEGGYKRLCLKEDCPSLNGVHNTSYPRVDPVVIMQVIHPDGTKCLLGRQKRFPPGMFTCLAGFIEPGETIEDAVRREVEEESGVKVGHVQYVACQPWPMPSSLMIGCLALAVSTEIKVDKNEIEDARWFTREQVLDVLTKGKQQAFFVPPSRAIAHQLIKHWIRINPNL
Protocol: as §1, §2

CaMK2d (CAMK2D) = CaMK2d (CAMK2D) (Homo sapiens, UniProt Q13557); test: binding to AX14596 beads (HeLa lysate, SILAC MS); set-up: endogenous in cells; host or cells: HeLa S3
CaMK2d (CAMK2D), sequence (Q13557 whole entry): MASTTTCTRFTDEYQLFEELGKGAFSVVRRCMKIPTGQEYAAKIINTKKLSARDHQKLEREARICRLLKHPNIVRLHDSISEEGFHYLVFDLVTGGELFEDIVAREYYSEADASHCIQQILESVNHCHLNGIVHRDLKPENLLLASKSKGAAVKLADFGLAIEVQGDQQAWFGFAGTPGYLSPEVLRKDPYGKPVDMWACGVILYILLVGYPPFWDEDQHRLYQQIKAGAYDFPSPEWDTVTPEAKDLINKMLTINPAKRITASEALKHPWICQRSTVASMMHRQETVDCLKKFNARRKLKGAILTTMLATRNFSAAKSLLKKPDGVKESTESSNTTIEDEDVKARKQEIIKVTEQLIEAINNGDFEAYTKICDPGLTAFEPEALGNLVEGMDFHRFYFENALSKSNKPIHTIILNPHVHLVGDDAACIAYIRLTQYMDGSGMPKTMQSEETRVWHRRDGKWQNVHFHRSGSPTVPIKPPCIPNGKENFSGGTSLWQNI
Protocol: as §1, §2

MNK1 (MKNK1) = MNK1 (MKNK1) (Homo sapiens, UniProt Q9BUB5); test: binding to AX14596 beads (HeLa lysate, SILAC MS); set-up: endogenous in cells; host or cells: HeLa S3
MNK1 (MKNK1), sequence (Q9BUB5 whole entry): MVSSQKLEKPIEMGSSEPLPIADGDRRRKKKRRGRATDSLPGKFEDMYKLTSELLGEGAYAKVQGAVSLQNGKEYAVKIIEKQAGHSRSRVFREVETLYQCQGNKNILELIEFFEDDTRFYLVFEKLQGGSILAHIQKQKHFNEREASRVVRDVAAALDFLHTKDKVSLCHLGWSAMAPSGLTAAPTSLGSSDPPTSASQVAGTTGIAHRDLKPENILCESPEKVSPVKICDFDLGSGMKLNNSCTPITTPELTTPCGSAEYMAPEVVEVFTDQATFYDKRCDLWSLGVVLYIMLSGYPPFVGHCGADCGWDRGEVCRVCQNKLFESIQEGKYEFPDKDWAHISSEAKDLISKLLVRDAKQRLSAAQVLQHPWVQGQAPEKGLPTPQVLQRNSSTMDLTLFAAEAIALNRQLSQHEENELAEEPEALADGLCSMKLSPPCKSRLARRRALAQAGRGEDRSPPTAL
Protocol: as §1, §2

NAMPT = NAMPT (Homo sapiens, UniProt P43490); test: binding to AX14596 beads (HeLa lysate, SILAC MS); set-up: endogenous in cells; host or cells: HeLa S3
NAMPT, sequence (P43490 whole entry): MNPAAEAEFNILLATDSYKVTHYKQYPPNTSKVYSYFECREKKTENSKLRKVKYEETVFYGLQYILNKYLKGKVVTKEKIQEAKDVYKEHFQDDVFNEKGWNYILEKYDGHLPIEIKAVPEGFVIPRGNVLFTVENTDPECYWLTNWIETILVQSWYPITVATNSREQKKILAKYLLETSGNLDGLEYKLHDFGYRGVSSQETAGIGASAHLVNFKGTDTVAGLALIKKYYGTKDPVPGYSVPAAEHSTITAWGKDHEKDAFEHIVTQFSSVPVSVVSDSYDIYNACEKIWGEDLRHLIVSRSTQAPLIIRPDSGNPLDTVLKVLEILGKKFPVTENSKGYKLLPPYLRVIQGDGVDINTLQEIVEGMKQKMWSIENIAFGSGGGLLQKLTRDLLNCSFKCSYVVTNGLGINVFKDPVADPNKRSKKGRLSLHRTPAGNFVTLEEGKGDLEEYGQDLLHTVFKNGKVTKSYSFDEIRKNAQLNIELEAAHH
Protocol: as §1, §2

RPL7 = RPL7 (Homo sapiens, UniProt P18124); test: binding to AX14596 beads (HeLa lysate, SILAC MS); set-up: endogenous in cells; host or cells: HeLa S3
Protocol: as §1, §2

SPR = SPR (Homo sapiens, UniProt P35270); test: binding to AX14596 beads (HeLa lysate, SILAC MS); set-up: endogenous in cells; host or cells: HeLa S3
SPR, sequence (P35270 whole entry): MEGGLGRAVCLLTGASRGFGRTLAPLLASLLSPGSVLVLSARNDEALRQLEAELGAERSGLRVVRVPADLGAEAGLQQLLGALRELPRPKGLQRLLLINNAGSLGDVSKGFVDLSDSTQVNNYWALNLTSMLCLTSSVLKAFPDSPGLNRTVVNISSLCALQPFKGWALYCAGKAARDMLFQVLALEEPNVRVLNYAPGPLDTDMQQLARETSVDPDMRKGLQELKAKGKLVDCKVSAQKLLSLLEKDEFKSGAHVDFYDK
Protocol: as §1, §2

RPL27A = RPL27A (Homo sapiens, UniProt P46776); test: binding to AX14596 beads (HeLa lysate, SILAC MS); set-up: endogenous in cells; host or cells: HeLa S3
Protocol: as §1, §2

SNRPG = SNRPG (Homo sapiens, UniProt P62308); test: binding to AX14596 beads (HeLa lysate, SILAC MS); set-up: endogenous in cells; host or cells: HeLa S3
SNRPG, sequence (P62306 whole entry): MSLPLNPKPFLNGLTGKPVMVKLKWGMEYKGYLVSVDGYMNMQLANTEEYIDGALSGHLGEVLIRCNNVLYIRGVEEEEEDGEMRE
SNRPG, sequence (P62304 whole entry, further chain): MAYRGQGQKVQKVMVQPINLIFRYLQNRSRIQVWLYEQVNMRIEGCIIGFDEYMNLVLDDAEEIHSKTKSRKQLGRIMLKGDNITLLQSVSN
SNRPG, sequence (P62308 whole entry): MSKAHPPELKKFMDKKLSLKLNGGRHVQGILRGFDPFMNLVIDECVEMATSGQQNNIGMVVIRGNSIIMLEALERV
Protocol: as §1, §2

CK1e (CSNK1E) = CK1e (CSNK1E) (Homo sapiens, UniProt P49674); test: binding to AX14596 beads (HeLa lysate, SILAC MS); set-up: endogenous in cells; host or cells: HeLa S3
CK1e (CSNK1E), sequence (P49674 whole entry): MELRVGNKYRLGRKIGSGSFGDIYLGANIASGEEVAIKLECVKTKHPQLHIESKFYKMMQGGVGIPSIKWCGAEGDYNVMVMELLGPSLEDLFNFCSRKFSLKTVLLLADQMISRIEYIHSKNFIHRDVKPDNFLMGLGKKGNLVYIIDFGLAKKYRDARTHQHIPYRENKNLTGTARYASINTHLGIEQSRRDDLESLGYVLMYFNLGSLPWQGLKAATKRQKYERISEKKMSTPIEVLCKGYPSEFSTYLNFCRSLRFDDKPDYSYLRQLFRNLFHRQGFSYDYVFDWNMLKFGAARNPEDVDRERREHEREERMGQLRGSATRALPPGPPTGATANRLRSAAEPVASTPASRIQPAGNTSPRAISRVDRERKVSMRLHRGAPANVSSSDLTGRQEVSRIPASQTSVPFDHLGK
Protocol: as §1, §2

EphA2 = EphA2 (Homo sapiens, UniProt P29317); test: binding to immobilized V16742 (IVA1/IVA2, HeLa lysate, MS)
EphA2, sequence (P29317 24-976): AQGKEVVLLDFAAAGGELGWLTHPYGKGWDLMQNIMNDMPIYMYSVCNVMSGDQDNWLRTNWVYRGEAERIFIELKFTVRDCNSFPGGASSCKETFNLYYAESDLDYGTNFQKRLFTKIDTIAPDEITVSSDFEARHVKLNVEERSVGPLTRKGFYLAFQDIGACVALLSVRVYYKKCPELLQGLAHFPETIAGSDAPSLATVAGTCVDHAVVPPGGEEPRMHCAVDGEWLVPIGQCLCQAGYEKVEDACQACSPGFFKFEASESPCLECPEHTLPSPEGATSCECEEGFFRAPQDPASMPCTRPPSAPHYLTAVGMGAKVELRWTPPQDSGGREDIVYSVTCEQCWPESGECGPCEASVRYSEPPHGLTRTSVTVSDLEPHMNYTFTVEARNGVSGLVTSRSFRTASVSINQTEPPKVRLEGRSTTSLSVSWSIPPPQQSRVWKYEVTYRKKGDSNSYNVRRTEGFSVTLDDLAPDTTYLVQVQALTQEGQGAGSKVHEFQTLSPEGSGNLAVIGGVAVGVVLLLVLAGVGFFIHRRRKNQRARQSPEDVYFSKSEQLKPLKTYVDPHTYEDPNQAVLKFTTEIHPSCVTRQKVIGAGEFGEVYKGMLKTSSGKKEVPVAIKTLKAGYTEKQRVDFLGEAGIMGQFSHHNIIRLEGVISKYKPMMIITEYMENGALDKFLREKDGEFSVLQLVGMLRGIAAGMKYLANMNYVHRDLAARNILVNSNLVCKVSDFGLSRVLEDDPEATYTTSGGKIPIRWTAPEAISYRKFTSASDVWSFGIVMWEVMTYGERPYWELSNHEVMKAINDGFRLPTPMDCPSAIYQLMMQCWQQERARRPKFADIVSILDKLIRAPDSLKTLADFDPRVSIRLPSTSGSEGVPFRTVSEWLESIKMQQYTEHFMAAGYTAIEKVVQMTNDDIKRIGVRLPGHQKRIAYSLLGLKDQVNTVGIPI
Protocol: Using the three populations of SILAC-labelled cells and the three different inhibitor resins, two parallel experiments termed as IVA1 (In Vitro Association, Setting 1) and IVA2 (In Vitro Association, Setting 2) were performed. […] In IVA2, SILAC encoded HeLa cells lysates were subjected to two parallel rounds of consecutive affinity purification at the highest ligand density where the supernatant left behind after the first IVA was used for the second round of IVA. An additional incubation of Hela cell lysate with control beads devoid of immobilized inhibitor was also performed to distinguish background binders.
A common IPI identifier template was assigned to peptides based on the MASCOT html-output file for the IVA2 setting in first experiment. The proteins hits identified based on unique peptides were filtered for mass error and MASCOT score. Eventually, the hits identified in both first and second IVA2 experiments were quantified for IVA2 setting of first experiment by MSQuant. […] A next round of sorting was done to filter out protein hits that are less than 50% enriched in the IVA second round compared to IVA first round. This is because at enrichment below 50%, there could be significant errors in deducing kd values for the corresponding targets. […] The same set of targets was also quantified in IVA2 and IVA1 settings of an independent second experiment.

With `COc1cc2ncnc(Nc3ccc(F)c(Cl)c3)c2cc1OCCCN` [AX14596] the Ki (RPL7A) was 2.1 mM, the “r (3 mg/1 mg lysate)” value (RPL7A) was 5.23 and the “rAVERAGE (2. inc/1. inc)” value (RPL7A) was 0.95. For the same compound, the “rAVERAGE (control/1. inc)” value (RPL7A) was 0.17, the Ki (NUDT12) was 16.1 µM and the “r (3 mg/1 mg lysate)” value (NUDT12) was 2.24. For the same compound, the “r (5 h/2.5 h inc. time)” value (NUDT12) was 0.91, the “rAVERAGE (2. inc/1. inc)” value (NUDT12) was 0.14 and the “rAVERAGE (control/1. inc)” value (NUDT12) was 0.04. The Ki (CaMK2d (CAMK2D)) was 87.2 µM, the “r (3 mg/1 mg lysate)” value (CaMK2d (CAMK2D)) was 2.39 and the “r (5 h/2.5 h inc. time)” value (CaMK2d (CAMK2D)) was 1.13. The “rAVERAGE (2. inc/1. inc)” value (CaMK2d (CAMK2D)) was 0.47, the “rAVERAGE (control/1. inc)” value (CaMK2d (CAMK2D)) was 0.07 and the Ki (MNK1 (MKNK1)) was 922 µM. For the same compound, the “r (3 mg/1 mg lysate)” value (MNK1 (MKNK1)) was 2.94, the “r (5 h/2.5 h inc. time)” value (MNK1 (MKNK1)) was 1.05 and the “rAVERAGE (2. inc/1. inc)” value (MNK1 (MKNK1)) was 0.90. The “rAVERAGE (control/1. inc)” value (MNK1 (MKNK1)) was 0.04, the Ki (NAMPT) was 41.2 µM and the “r (3 mg/1 mg lysate)” value (NAMPT) was 7.48. For the same compound, the “r (5 h/2.5 h inc. time)” value (NAMPT) was 0.39, the “rAVERAGE (2. inc/1. inc)” value (NAMPT) was 0.29 and the “rAVERAGE (control/1. inc)” value (NAMPT) was 0.04. For the same compound, the Ki (RPL7) was 2.31 mM, the “r (3 mg/1 mg lysate)” value (RPL7) was 1.82 and the “rAVERAGE (2. inc/1. inc)” value (RPL7) was 0.96. For the same compound, the “rAVERAGE (control/1. inc)” value (RPL7) was 0.19, the Ki (SPR) was 1.86 mM and the “r (3 mg/1 mg lysate)” value (SPR) was 2.91. For the same compound, the “r (5 h/2.5 h inc. time)” value (SPR) was 2.43, the “rAVERAGE (2. inc/1. inc)” value (SPR) was 0.95 and the “rAVERAGE (control/1. inc)” value (SPR) was 0.02. For the same compound, the Ki (RPL27A) was 2.93 mM, the “r (3 mg/1 mg lysate)” value (RPL27A) was 1.75 and the “r (5 h/2.5 h inc. time)” value (RPL27A) was 1.12. The “rAVERAGE (2. inc/1. inc)” value (RPL27A) was 0.97, the “rAVERAGE (control/1. inc)” value (RPL27A) was 0.06 and the Ki (SNRPG) was 87.6 µM. For the same compound, the “r (3 mg/1 mg lysate)” value (SNRPG) was 2.54, the “rAVERAGE (2. inc/1. inc)” value (SNRPG) was 0.47 and the “rAVERAGE (control/1. inc)” value (SNRPG) was 0.16. For the same compound, the Ki (CK1e (CSNK1E)) was 4.08 mM, the “r (3 mg/1 mg lysate)” value (CK1e (CSNK1E)) was 2.87 and the “r (5 h/2.5 h inc. time)” value (CK1e (CSNK1E)) was 1.23. For the same compound, the “rAVERAGE (2. inc/1. inc)” value (CK1e (CSNK1E)) was 0.98 and the “rAVERAGE (control/1. inc)” value (CK1e (CSNK1E)) was 0.09.
In the case of `CC(C)n1c(=O)ccc2cnc(Nc3ccc(OCCN)cc3)nc21` [V16742], the Kd (EphA2) is reported as 58.1 µM, the “Percent bound at various 16742 conc” value (EphA2; EphA2, Experiment 1, 1.87 μM 16742) is reported as 3.91% and the “Percent bound at various 16742 conc” value (EphA2; EphA2, Experiment 1, 8.74 μM 16742) is reported as 13.88%. For the same compound, the “Percent bound at various 16742 conc” value (EphA2; EphA2, Experiment 1, 52 μM 16742) was 54.66%, the “Percent bound at various 16742 conc” value (EphA2; EphA2, Experiment 2, 1.87 μM 16742) was 2.12% and the “Percent bound at various 16742 conc” value (EphA2; EphA2, Experiment 2, 8.74 μM 16742) was 7.66%. The “Percent bound at various 16742 conc” value (EphA2; EphA2, Experiment 2, 52 μM 16742) was 43.73%, the Kd (EphA2; Kd, EphA2, Experiment 1) was 45.3 µM and the Kd (EphA2; Kd, EphA2, Experiment 2) was 70.8 µM.

From patent publication US8959984B2, “Proteome-wide quantification of small molecule binding to cellular target proteins” (priority 2007, dated 2015)
